Results: patent US4614732A, “N^6 -acenaphthyl adenosines and analogs thereof” (Warner-Lambert Company, priority 1985, dated 1986)

Assays:
rat heart = test: Coronary Blood Flow Evaluation: isolated perfused rat heart; details: for activation at 1 µM / inhibition at 1 µM: 1 × 10^-6 Molar; for activation at 0.1 µM / inhibition at 0.1 µM: 1 × 10^-7 Molar; for activation at 0.01 µM / inhibition at 0.01 µM: 1 × 10^-8 Molar; for activation at 3 µM / inhibition at 3 µM: 3 × 10^-6 Molar; for activation at 0.3 µM / inhibition at 0.3 µM: 3 × 10^-7 Molar; for activation at 0.03 µM / inhibition at 0.03 µM: 3 × 10^-8 Molar
Procedure: The usefulness of the compounds of the present invention as agents effective to treat angina, is shown by their effectiveness in standard pharmacological test procedures, for example, in causing significant increase in coronary blood flow in rats. This test procedure is described in the following paragraphs.
Male rats (400-600 gms) are pretreated with Na heparin 2000 units and anesthetized with Na pentobarbital (50 mg/kg) administered intraperitoneally. Once anesthetized, the rat heart is rapidly excised, the ascending aorta fitted to the aortic perfusion cannula, and secured with a ligature. The coronary arteries were perfused initially at a rate of about 15 ml/min for two to three minutes, after which they are perfused at constant pressure of 70 mm Hg and temperature of 37° C. The electrocardiogram (ECG) is recorded using two platinum electrodes positioned at the base and apex of the left venticle. A second heart is excised, cannulated, and perfused by the same method outlined above. Both hearts are tested in parallel. The standard physiological salt solution (PSS) is a modified Krebs-Hanseleit bicarbonate buffer of the following composition in mM concentration: NaCl, 127; NaHCO3, 25; dextrose, 5.5; Na Pyruvate, 2.0; KCl, 4.7; MgSO4, 1.1; KH2 PO4, 1.2; CaCl2.2H2 O, 2.5; CaNa2 EDTA, 0.05.
A 30-minute stabilization period is observed before starting the test protocol.
The microprocessor control system is a servo mechanism which permits coronary perfusion pressure (CPP) and drug concentration to be maintained constant independent of changes in coronary flow. The level at which CPP and drug concentration are maintained can be changed by commands communicated through the microprocessor keyboard. Dose-response curves are carried out by perfusing concentrated drug solution (DC) at rates proportional to total coronary flow (CFT). Drug concentrations are increased by proportionate increases in the rate of DC infusion over CFT via the microprocessor keyboard. The proportional flow rates for DC:CFT is about 0.0002:1 at the low end and 0.02:1 at the high end of the dose-response curve. Dose-response curves encompassing at least two log doses are carried out by preparing two DCs with a concentration difference of 1:100. Following the first dose range of two log doses, the DC are switched, proportional pumping rate adjusted, and the dose-responsecurve continued for another two log doses. The standard dose-response curve is carried out in one-half log dose increments starting at a subthreshold dose and ending at a dose which produces near maximal response in activity. Standard reference compounds are tested over the range of 10^-9 to 10^-6 M.
Measurements are for heart rate (HR) and coronary flow (CF). Units are: HR, beats/minute (bpm) and CF, milliliters/minute (ml/min). HR is calculated from the ECG strip chart recording and CF is calculated by recording analog outputs from pumps 1 and 2. Outputs from pump #1=CFT and the output from pump #2=CF for heart B (CFB). CF for heart A (CFA) is calculated (CFT -CFB =CFA).
Using the above techniques, the effects of the compound of Examples 1, 2 and 3 are as follows indicating the compound of Example 3 is preferred to increase coronary blood flow.

adenosine A1 receptor = biological target: T1, adenosine A1 receptor (Rattus norvegicus, UniProt P25099); test: Adenosine Receptor Binding--A1 Receptor Affinity (RBA1), [3H]-CHA displacement, rat whole brain membranes; design: species or system rat (male Long Evans); details: 1.0 nM [3H]-CHA, 25° C., one hour, read-out: IC50 for adenosine A1 receptor affinity (RBA-1)
T1 construct: Whole brain minus cerebellum and brainstem from male Long Evans rats; from tissue; host or cells: rat whole brain minus cerebellum and brainstem, membranes
T1 sequence (P25099 1-326): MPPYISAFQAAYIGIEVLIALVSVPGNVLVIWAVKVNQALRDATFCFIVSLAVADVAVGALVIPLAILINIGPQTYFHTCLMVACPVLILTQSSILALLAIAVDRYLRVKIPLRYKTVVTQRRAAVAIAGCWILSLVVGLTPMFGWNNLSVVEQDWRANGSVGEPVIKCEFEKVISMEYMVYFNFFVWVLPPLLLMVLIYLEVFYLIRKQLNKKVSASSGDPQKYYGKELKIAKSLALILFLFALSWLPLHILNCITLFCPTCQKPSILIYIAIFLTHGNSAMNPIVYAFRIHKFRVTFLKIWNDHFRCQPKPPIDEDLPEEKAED
Procedure: Whole brain minus cerebellum and brainstem from male Long Evans rats (150-200 g) was homogenized in 30 volumes of ice-cold 0.05M Tris-HCl buffer pH 7.7 using a Brinkman Polytron PT-10, (setting number 6 for 20 seconds) and centrifuged for ten minutes at 20,000×g (Sorvall RC-2), 4° C. The supernatant was discarded, and the pellet was resuspended and centrifuged as before. The pellet was resuspended in 20 ml Tris-HCl buffer containing two International Units/ml of adenosine deaminase (Sigma type III from calf intestinal mucosa), incubated at 37° C. for 30 minutes, then subsequently at 0° C. for ten minutes. The homogenate was again centrifuged, and the final pellet was resuspended in ice-cold 0.05M Tris-HCl buffer pH 7.7 to a concentration of 20 mg/ml original wet tissue weight and used immediately.
Tissue homogenate (10 mg/ml) was incubated in 0.05M Tris-HCl buffer pH 7.7 containing 1.0 nM [^3 H]-N^6 -cyclohexyladenosine ([^3 H]-CHA) with or without test agents in triplicate for one hour at 25° C. Incubation volume was 2 ml. Unbound [^3 H]-CHA was separated by rapid filtration under reduced pressure through Whatman glass fiber (GF/B) filters. The filters were rinsed three times with 5 ml of ice cold 0.05M Tris-HCl buffer pH 7.7. The radio-labeled ligand retained on the filter was measured by liquid scintillation spectrophotometry after shaking the filters for one hour or longer on a mechanical shaker in 10 ml of Beckman Ready-Solv HP scintillation cocktail.
Nonspecific binding was defined as the binding which occurred in the presence of 1 mM theophylline. The concentration of test agent which inhibited 50% of the specific binding (IC50) was determined by nonlinear computer curve fit. The Scatchard plot was calculated by linear regression of the line obtained by plotting the amount of radioligand bound (pmoles/gram of tissue) versus [formula] […] The Hill coefficient was calculated by linear regression of the line obtained by plotting the log of the bound radioligand vs the log of the [formula] The maximal number of binding sites (Bmax) was calculated from the Scatchard plot.

adenosine A2 receptor = biological target: T2, adenosine A2 receptor (Rattus norvegicus, UniProt P30543); test: Adenosine Receptor Binding--A2 Receptor Affinity (RBA2), [3H]NECA displacement, rat striatal membranes; design: species or system rat (Sprague-Dawley; Long-Evans); details: 4 nM [3H]NECA, 50 nM N6-cyclopentyladenosine, 25° C., 60 min, read-out: IC50 for adenosine A2 receptor affinity (RBA-2)
T2 construct: Brains were thawed and then kept on ice while the striata were dissected out; tissue Pel-Freez (Rogers, Ark.); host or cells: rat striatum, membranes
Procedure: Brains from 200-500 g mixed sex Sprague-Dawley rats were purchased from Pel-Freez (Rogers, Ark.). Fresh brains from male Long-Evans hooded rats (Blue Spruce Farms, Altamont, NY) gave essentially identical results. Brains were thawed and then kept on ice while the striata were dissected out. Striata were disrupted in 10 vol of ice-cold 50 mM Tris.HCl (pH 7.7 at 25° C., pH 8.26 at 5° C.) (Tris) for 30 seconds in a Polytron PT-10 (Brinkmann) at setting 5. The suspension was centrifuged at 50,000×g for ten minutes, the supernatant discarded, the pellet resuspended in 10 vol ice-cold Tris as above, recentrifuged, resuspended at 1 g/5 ml, and stored in plastic vials at -70° C. (stable for at least six months). When needed, tissue was thawed at room temperature, disrupted in a Polytron, and kept on ice until used.
All incubations were for 60 minutes at 25° C. in 12×75 mm glass tubes containing 1 ml Tris with 5 mg original tissue weight of rat weight of rat striatal membranes, 4 nM [^3 H]-N-ethyl adenosine-5'-carboxamide ([^3 H]NECA), 50 nM N^6 -cyclopentyladenosine (to eliminate A1 receptor binding), 10 mM MgCl2, 0.1 units/ml of adenosine deaminase and 1% dimethylsulfoxide. N^6 -Cyclopentyladenosine was dissolved at 10 mM in 0.02N HCl and diluted in Tris. […]
Incubations were terminated by filtration through 2.4 cm GF/B filters under reduced pressure. […] Filters were put in scintillation vials, 8 ml of Formula 947 scintillation fluid added, and the vials left overnight, shaken, and counted in a liquid scintillation counter at 40% efficiency.
Nonspecific binding was defined as binding in the presence of 100 μM N^6 -cyclopentyladenosine, and specific binding was defined as total binding minus nonspecific binding. The IC50 was calculated by weighted nonlinear least squares curve-fitting to the mass-action equation. […]
Weighting factors were calculated under the assumption that the standard deviation was proportional to the predicted value of Y. Nonspecific binding was treated as a very large (inifinite) concentration of drug in the computer analysis.

[1] = read-out: coronary flow (CF), % increase
[2] = read-out: heart rate (HR), % decrease

T2 sequence (P30543 whole entry): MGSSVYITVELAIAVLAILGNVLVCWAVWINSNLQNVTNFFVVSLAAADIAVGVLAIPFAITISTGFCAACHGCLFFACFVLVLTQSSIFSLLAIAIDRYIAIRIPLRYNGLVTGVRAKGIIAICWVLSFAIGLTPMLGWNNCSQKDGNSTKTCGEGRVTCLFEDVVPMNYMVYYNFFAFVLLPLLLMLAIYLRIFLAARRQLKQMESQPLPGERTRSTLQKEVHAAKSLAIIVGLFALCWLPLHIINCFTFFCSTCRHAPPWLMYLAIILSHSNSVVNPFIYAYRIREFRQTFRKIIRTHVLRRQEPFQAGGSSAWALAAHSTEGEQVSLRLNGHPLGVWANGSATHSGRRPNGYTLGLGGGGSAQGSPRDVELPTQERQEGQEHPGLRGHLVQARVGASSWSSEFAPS

| IC50 (adenosine A1 receptor) [nM] | IC50 (adenosine A2 receptor) [nM] | Compound | activation at 1 µM (rat heart; [1]) [%] | inhibition at 1 µM (rat heart; [2]) [%] | activation at 0.1 µM (rat heart; [1]) [%] | inhibition at 0.1 µM (rat heart; [2]) [%] | activation at 0.01 µM (rat heart; [1]) [%] | inhibition at 0.01 µM (rat heart; [2]) [%] | activation at 3 µM (rat heart; [1]) [%] | inhibition at 3 µM (rat heart; [2]) [%] | activation at 0.3 µM (rat heart; [1]) [%] | inhibition at 0.3 µM (rat heart; [2]) [%] | activation at 0.03 µM (rat heart; [1]) [%] | inhibition at 0.03 µM (rat heart; [2]) [%] | activation at 0.001 µM (rat heart; 1 × 10^-9 Molar, read-out: coronary flow (CF), % increase) [%] | inhibition at 0.001 µM (rat heart; 1 × 10^-9 Molar, read-out: heart rate (HR), % decrease) [%] | activation at 0.003 µM (rat heart; 3 × 10^-9 Molar, read-out: coronary flow (CF), % increase) [%] | inhibition at 0.003 µM (rat heart; 3 × 10^-9 Molar, read-out: heart rate (HR), % decrease) [%] |
| --- | --- | --- | --- | --- | --- | --- | --- | --- | --- | --- | --- | --- | --- | --- | --- | --- | --- | --- |
| 6 | 24 | OC[C@H]1O[C@@H](n2cnc3c(NCC4Cc5cccc6cccc4c56)ncnc32)[C@H](O)[C@@H]1O (stereo partly drawn) [Example 3, N^6-[(1,2-Dihydro-1-acenaphthylenyl)methyl]adenosine] | 62 | 65 | 58 | 36 | 41 | 2 | 67 | 68 | 67 | 44 | 49 | 8 |  |  |  |  |
| 640 | 950 | OC[C@H]1O[C@@H](n2cnc3c(NC4Cc5cccc6cccc4c56)ncnc32)[C@H](O)[C@@H]1O (stereo partly drawn) [Example 1, N^6 -Acenaphthyladenosine] | 44 | 5 | 27 | 2 | 0 | 1 | 49 | 8 | 40 | 2 | 7 | 0 |  |  |  |  |
| 92 | 63 | OC[C@H]1O[C@@H](n2cnc3c(NCC4=Cc5cccc6cccc4c56)ncnc32)[C@H](O)[C@@H]1O [Example 2, N^6-(1-acenaphthylenylmethyl)adenosine] | 62 | 30 |  |  | 37 | 1 |  |  | 60 | 25 | 48 | 4 | 2 | -1 | 7 | -1 |
